This is an account of results in EP2330125A2 (priority 2005, dated 2007).

The conditions of test [1]: rat, in vivo.
Protocol: (§1) DIO male rats are obtained from Charles River Laboratories, Inc. (Wilmington, MA). […] The animals typically achieve a mean body weight of about 500 g. Levin DIO rats are habituated to caging environment for 7 days. During the 3 nights of habituation, animals receive a single intraperitoneal (IP) injection of vehicle. […] Food intake is measured by an automated food intake measuring system (BioDAQ, Research Diets) at 5 sec intervals throughout the course of the study. Body weight is recorded nightly.
Values are given as percent inhibition of body weight.
Values are given as percent inhibition of body weight. […] Body Weight: ∼2% difference is statistically significant.
The format of test [2] is in vivo, Sprague-Dawley rat (Levin DIO rats). The note with it: for percent inhibition of body weight: rat DIO.
Protocol: as §1
Body composition was measured prior to and after drug treatment using NMR (Echo Medical Systems, Houston, TX). For body composition measurements, rats are briefly placed (~1 min) in a well-ventilated plexiglass tube that was then inserted into a specialized rodent NMR machine. This enabled the calculation of changes in actual grams of fat and dry lean tissue (e.g., grams of body fat after treatment -grams of body fat at baseline = change in grams of body fat) and changes in % body composition for fat and dry lean tissue (e.g., % body fat after treatment -% body fat at baseline = change in % body fat). All data are represented as mean ± SEM. Analysis of variance (ANOVA) and post-hoc tests were used to test for group difference. […] Graphs and results are typically presented as vehicle-corrected changes in percent body weight, body fat and changes in body protein
Values are as provided as percent inhibition of body weight after infusion for the time periods indicated.
The conditions of test [3]: rat, in vivo. This is another data set of the same source.
Protocol: as §1
Values are given as percent inhibition of body weight. […] Body Weight: ∼2% difference is statistically significant. Food Intake: ∼20% difference is statistically significant.
The format of test [4] is in vivo, NIH/Swiss mice. More on the design: key to percent inhibition of food intake: "ns" means "not significant" compared to vehicle.
Protocol: For studies of the effects of PPF polypeptides on longer-term (chronic) food intake and/or body composition, the amount of food consumed over a period of two weeks was measured. For these studies of the effects of PPF polypeptides on longer-term food intake and/or body composition, mice were housed singly for 1 week prior to the beginning of treatment. Throughout the experiments, food intake and body weight were monitored daily. […] At the end of each study, animals were sacrificed after a 2-4 hr fast by isoflurane overdose. Blood was collected into Na-heparin-flushed syringes by cardiac puncture, and plasma was immediately frozen. In some studies, body composition was determined using dual-energy X-ray absorptiometry (DEXA; PixiMus, GE Lunar). In some studies, body composition (such as the amounts of fat and protein) were measured pre- and post treatment using a rodent NMR machine (EchoMRI-700™), in which animals are placed in a restraining tube and placed in the NMR for 2 minutes, and the amount of fat and lean mass, in grams, is quantified.
A further test concerns the target calcitonin receptor. It counts as binding.
The format of test [5] is in vivo, Levin rats.
Description: Values are given as percent reduction of blood glucose level.
Test [6] is classed as in vivo, C57BL/6 mice. The note with it: mouse DIO.
Description: An exemplary assay can be one that involves utilization of a diet-induced obese (DIO) mouse model for metabolic disease. […] During the study, the mice can continue to eat their high-fat diet Water can be provided ad libitum throughout the study.
DIO mice can be implanted with subcutaneous (SC) intrascapular osmotic pumps to deliver either vehicle (50% dimethylsulfoxide (DMSO) in water) or a compound of the invention.
Body weights and food intake can be measured over regular intervals throughout the study periods. Respiratory quotient (RQ, defined as CO2 production ÷ O2 consumption) and metabolic rate can be determined using whole-animal indirect calorimetry (Oxymax, Columbus Instruments, Columbus, OH). The mice can be euthanized by isoflurane overdose, and an index of adiposity (bilateral epididymal fat pad weight) measured. Moreover, prior to determination of epididymal weight, body composition (lean mass, fat mass) for each mouse can be analyzed using a Dual Energy X-ray Absorptiometry (DEXA) instrument per manufacturer's instructions (Lunar Piximus, GE Imaging System).
The next test concerns the target GLP Receptor. It counts as biochemical.
The nature of test [7]: Gastric emptying (acetaminophen passed). Format: in vivo, Levin rats.
Description: Values are given as percent inhibition of gastric emptying and percent acetaminophen passed.
For the next test, the target named is T1, CT receptor (Rattus norvegicus, UniProt P32214).
T1 construct: host or cells: 'C1A' (not explained)
T1 sequence (P32214 25-479 isoform P32214-2 limits assumed): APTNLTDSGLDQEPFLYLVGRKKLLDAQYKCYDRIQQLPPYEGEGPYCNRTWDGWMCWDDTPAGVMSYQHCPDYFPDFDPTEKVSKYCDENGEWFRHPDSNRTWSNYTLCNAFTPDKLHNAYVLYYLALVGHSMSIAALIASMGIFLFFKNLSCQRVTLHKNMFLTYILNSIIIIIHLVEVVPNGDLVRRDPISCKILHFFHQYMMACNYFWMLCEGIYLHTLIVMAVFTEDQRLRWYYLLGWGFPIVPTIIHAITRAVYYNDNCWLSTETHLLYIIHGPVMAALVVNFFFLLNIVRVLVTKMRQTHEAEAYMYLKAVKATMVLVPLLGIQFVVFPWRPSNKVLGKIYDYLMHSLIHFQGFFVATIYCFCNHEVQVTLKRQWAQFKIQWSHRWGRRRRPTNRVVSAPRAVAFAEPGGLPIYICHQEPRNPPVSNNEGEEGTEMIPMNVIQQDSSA
Format: cell-based.

The next test concerns the target T2, CGRP receptors (Homo sapiens, UniProt O60894+Q16602).
T2 construct: SK-N-MC and L6 cells expressing endogenous CGRP receptors; endogenous in cells; host or cells: SK-N-MC cell membranes
It counts as binding.

The conditions of test [8]: infusions in normal men; cited from earlier work.

Like-named read-outs stand apart in the source and are kept apart here.

T2 sequence (Q16602 23-461): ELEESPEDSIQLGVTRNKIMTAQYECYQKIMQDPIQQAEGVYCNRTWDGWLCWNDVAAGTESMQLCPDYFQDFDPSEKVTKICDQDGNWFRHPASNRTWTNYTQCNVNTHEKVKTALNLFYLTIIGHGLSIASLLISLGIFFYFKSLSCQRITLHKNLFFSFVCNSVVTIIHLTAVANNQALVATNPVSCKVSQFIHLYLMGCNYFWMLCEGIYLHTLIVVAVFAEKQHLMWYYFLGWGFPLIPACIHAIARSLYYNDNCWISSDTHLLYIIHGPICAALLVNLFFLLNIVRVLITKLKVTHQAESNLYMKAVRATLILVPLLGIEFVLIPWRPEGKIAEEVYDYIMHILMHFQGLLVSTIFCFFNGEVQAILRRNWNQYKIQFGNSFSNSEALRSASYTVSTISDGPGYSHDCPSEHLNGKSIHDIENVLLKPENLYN
T2 sequence (O60894 27-148 partner): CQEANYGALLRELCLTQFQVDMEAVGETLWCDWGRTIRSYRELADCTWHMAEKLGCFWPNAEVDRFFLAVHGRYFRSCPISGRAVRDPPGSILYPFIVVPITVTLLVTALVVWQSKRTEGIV

In the case of Amylin, the “1 Wk BW Loss” value stood at 0% in [1] and 6% in test [2] (rat, in vivo). The “FI Iinhib @ 8 hr” value in [3] was found to be 0%.

As for “KCNTATCATQRLANFLVRSSNNLGPVLPPTNVGSNTY [rat amylin]”, the “percent inhibition of food intake” value came to 46% in [4] (25 nmol/kg, 30 min); 35% in [4] (25 nmol/kg, 60 min); 21% in [4] (25 nmol/kg, 120 min); 17% in test [4] (25 nmol/kg, 180 min); 7% in [4] (25 nmol/kg, 240 min); 70% in test [4] (250 nmol/kg, 30 min). In addition, the “percent inhibition of food intake” value in [4] (250 nmol/kg, 60 min) is on record as 53%; in test [4] (250 nmol/kg, 120 min), 38%; in test [4] (250 nmol/kg, 180 min), 30%; in [4] (300 nmol/kg, 30 min), 88%; in [4] (300 nmol/kg, 60 min), 90%; in test [4] (300 nmol/kg, 120 min), 51%. Also, in test [4] (300 nmol/kg, 180 min), the “percent inhibition of food intake” value is 21%. In addition, the “60 min ED50” value in test [4] (Mouse Food Intake, 60 min) was 9 nmol/kg. Further, the IC50 at calcitonin receptor (read-out: Receptor Binding CT) turned out to be 3 nM. Moreover, the “%Reduction of blood glucose, OGTT, 30” value in test [5] (23 nmol/kg/d, day 26) is on record as 2.3%; in test [5] (69 nmol/kg/d, day 14), 11%. For the same substance, the “%Reduction of blood glucose, OGTT, 60” value in test [5] (23 nmol/kg/d, day 26) is recorded as 19.2%; in [5] (69 nmol/kg/d, day 14) it was 5.9%. Further, the “%Reduction of blood glucose, OGTT, 120” value in test [5] (23 nmol/kg/d, day 26) amounted to 2.1%; in [5] (69 nmol/kg/d, day 14), 1.2%. In addition, the “%Reduction of blood glucose, OGTT, Basal” value came to 4% in [5] (23 nmol/kg/d, day 26) and 6% in test [5] (69 nmol/kg/d, day 14). Moreover, the “%Reduction of blood glucose, OGTT, 15” value in [5] (69 nmol/kg/d, day 14) is -0.2%. Also, the “percent inhibition of body weight” value in test [6] (infusion 30 nmol/kg/d, Day 2) is reported as 1.9%; in test [6] (infusion 30 nmol/kg/d, Day 7), 1.5%; in [6] (infusion 30 nmol/kg/d, Day 14) it was 2.1%; in test [6] (infusion 30 nmol/kg/d, Day 21), 2.5%; in test [6] (infusion 30 nmol/kg/d, Day 28), 2.2%; in test [6] (infusion 75 nmol/kg/d, Day 2), 1.5%. For the same substance, the “percent inhibition of body weight” value in test [6] (infusion 75 nmol/kg/d, Day 7) is 1.4%; in [6] (infusion 75 nmol/kg/d, Day 14), 2.1%; in test [6] (infusion 100 nmol/kg/d, Day 2), 1.6%; in [6] (infusion 100 nmol/kg/d, Day 7) it was 1.8%; in [6] (infusion 100 nmol/kg/d, Day 14) it was 3.1%; in test [6] (infusion 100 nmol/kg/d, Day 21) it was 3.8%. Besides, the “percent inhibition of body weight” value amounted to 4.4% in [6] (infusion 100 nmol/kg/d, Day 28); 6.9% in [6] (infusion 100 nmol/kg/d, Day 35); 8.6% in test [6] (infusion 100 nmol/kg/d, Day 42); 9.6% in [6] (infusion 100 nmol/kg/d, Day 49); 10.3% in test [6] (infusion 100 nmol/kg/d, Day 63); 11.4% in test [6] (infusion 100 nmol/kg/d, Day 70). In addition, the “percent inhibition of body weight” value in test [6] (infusion 100 nmol/kg/d, Day 77) is recorded as 12%; in test [6] (infusion 100 nmol/kg/d, Day 84), 13.4%; in [6] (infusion 300 nmol/kg/d, Day 2), 1.1%; in [6] (infusion 300 nmol/kg/d, Day 7), -0.7%; in test [6] (infusion 300 nmol/kg/d, Day 14), -0.9%; in [6] (infusion 300 nmol/kg/d, Day 21) it was -1.5%. Further, the “percent inhibition of body weight” value in test [6] (infusion 300 nmol/kg/d, Day 28) is listed as -1.5%; in [2] (infusion 0.7 nmol/kg/d, Day 7), 1.6%; in test [2] (infusion 0.7 nmol/kg/d, Day 14) it was 1.3%; in test [2] (infusion 0.7 nmol/kg/d, Day 21) it was 1.6%; in test [2] (infusion 0.7 nmol/kg/d, Day 28), 2.1%; in test [2] (infusion 7 nmol/kg/d, Day 7), 5.7%. Also, the “percent inhibition of body weight” value in [2] (infusion 7 nmol/kg/d, Day 14) was determined as 7.3%; in test [2] (infusion 7 nmol/kg/d, Day 21), 7.9%; in test [2] (infusion 7 nmol/kg/d, Day 28), 8.3%; in test [2] (infusion 18.4 nmol/kg/d, Day 7), 5.9%; in test [2] (infusion 18.4 nmol/kg/d, Day 14), 7.5%; in [2] (infusion 18.4 nmol/kg/d, Day 21) it was 6.7%. For the same substance, the “percent inhibition of body weight” value is 6.5% in test [2] (infusion 18.4 nmol/kg/d, Day 28); 7.8% in [2] (infusion 23 nmol/kg/d, Day 7); 9.4% in test [2] (infusion 23 nmol/kg/d, Day 14); 8.8% in test [2] (infusion 23 nmol/kg/d, Day 21); 8.8% in test [2] (infusion 23 nmol/kg/d, Day 28); 9.5% in test [2] (infusion 23 nmol/kg/d, Day 35). The “percent inhibition of body weight” value in [2] (infusion 23 nmol/kg/d, Day 42) came out at 10%; in [2] (infusion 23 nmol/kg/d, Day 49) it was 9.8%; in test [2] (infusion 23 nmol/kg/d, Day 56) it was 9.1%; in [2] (infusion 69 nmol/kg/d, Day 7), 7.6%; in test [2] (infusion 69 nmol/kg/d, Day 14) it was 9.3%; in test [2] (infusion 69 nmol/kg/d, Day 21), 11.1%. The “percent inhibition of body weight” value in [2] (infusion 69 nmol/kg/d, Day 28) is 12.2%; in test [2] (infusion 69 nmol/kg/d, Day 49) it was 15.4%; in [2] (infusion 69 nmol/kg/d, Day 56) it was 15.7%; in test [2] (infusion 69 nmol/kg/d, Day 63) it was 16.2%; in test [2] (infusion 69 nmol/kg/d, Day 70) it was 15.8%; in [2] (infusion 70 nmol/kg/d, Day 7) it was 7.6%. The “percent inhibition of body weight” value in test [2] (infusion 70 nmol/kg/d, Day 14) was determined as 8.9%; in test [2] (infusion 70 nmol/kg/d, Day 21), 10.2%; in [2] (infusion 70 nmol/kg/d, Day 28) it was 11.8%. Moreover, the EC50 on GLP Receptor (read-out: Receptor Activation GLP-1/GIP/CT cyclase) was found to be 5 nM. For the same substance, the “%inhibition of gastric emptying” value in test [7] (69 nmol/kg/d, 21 days on study) is given as 45%; in test [7] (100 µg/kg/d, 26 days on study), 24%. Besides, the “%passed (acetaminophen)” value in test [7] (69 nmol/kg/d, 21 days on study) came to 55%; in test [7] (100 µg/kg/d, 26 days on study), 76%.

For the substance “[Ser117, dLeu119]leptin(116-122)-Amylin(1-7)-[^11,18Arg]sCT(8-27)-Amylin(33-37) [Compound 16]”, the “activation of the CT receptor (C1A assay)” value on CT receptor was “able to activate”. Further, the “cumulative intake, % that of controls” value in test [4] (mouse, in vivo) is reported as 34-38%. The “binding to the CT receptor (RBA = receptor binding assay)” value with calcitonin receptor was “bound”. Besides, the “binding to the CGRP receptor (RBA = receptor binding assay)” value on CGRP receptors is reported as “some binding”.

For the substance “DF(P-CH2SO3)MGWNMFGKR KCNTATCATQRLANELVRLQTYPRTNVGSNTY [SEQ ID NO: 398]”, at GLP Receptor (read-out: IC50 in a GLP Receptor cyclase (RIN) assay), the IC50 is 1000 nM.

In the case of CCK8, the “percent inhibition of food intake” value in [4] (mouse, in vivo) is listed as “ns”.

Take brain natriuretic peptide [BNP]: in [8], the “increase in sodium excretion” value is given as 2 fold; the “reduction in plasma renin, angiotensin II and aldosterone secretion” value is listed as 50%.
